Tested on: P388
Experiment: Antileukemic activity in vivo against P-388 mouse leukemia cell expressed as Dose
Format: functional

CC(=O)OC1C(=O)OC[C@]23CC[C@H](C)C[C@H]2O[C@@H]2C[C@@H](OC(=O)/C=C\C=C\C(=O)OCCC1C)[C@@]3(C)C21CO1 (stereo partly specified) [VERRUCARIN A ACETATE]
Dose: >1

Reference: ChEMBL document CHEMBL1121511, “Antileukemic compounds derived from the chemical modification of macrocyclic trichothecenes. 1. Derivatives of verrucarin A” (1980)
